Structures can show the parent of a compound that is named as a salt. Where two headings read alike, the source gives them in different places.
System: Aβ1-42 production
Assay: Cellular assay for inhibition of Aβ1-42 production (H4 APP751 SWE clone 8.20)
Type: cell-based
Details: H4 APP751 SWE clone 8.20 cells, 19 h incubation
How it was run: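 Inhibition values are IC50s fitted to Viewlux counts after a 19 h compound exposure at 37 °C. Aβ42 was captured by the neoepitope-specific antibody 565 (0.8 ng/well) paired with N-terminal 26D6 (75 ng/well), incubated overnight at 4 °C in pH 7.4 Tris-HCl buffer containing 0.2% BSA.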

[1] = class symbols, read-out: Activity Rating (Aβ42 cellular IC50)
[2] = 19 h, class symbols, read-out: Activity Rating (Aβ42 cellular IC50)
[3] = 19 h, read-out: Activity Rating (Aβ42 cellular IC50), numeric value

An IC50 [1] of 10 to 100 nM was found for `CNc1nc(Nc2ccc(-n3cnc(Cl)c3)c(OC)c2)nc2c1CCC2c1ccc(Cl)cc1` (single isomer, unassigned) [Example 94B, N^2-(4-(4-chloro-1H-imidazol-1-yl)-3-methoxyphenyl)-7-(4-chlorophenyl)-N^4-methyl-6,7-dihydro-5H-cyclopenta[d]pyrimidine-2,4-diamine] in this work.
An IC50 [2] of 10 to 100 nM was found for `CNc1nc(Nc2ccc(-n3ncnc3C)c(F)c2)nc2c1CCC2c1cc(F)c(F)c(F)c1` (stereo not drawn) [Example 104, N^2-(3-fluoro-4-(5-methyl-1H-1,2,4-triazol-1-yl)phenyl)-N^4-methyl-7-(3,4,5-trifluorophenyl)-6,7-dihydro-5H-cyclopenta[d]pyrimidine-2,4-diamine] in this work.
An IC50 [1] of 1.5 to 9.9 nM was found for `CCNc1nc(Nc2ccc(-n3cnc(Cl)c3)c(OC)c2)nc2c1CN(C(=O)OC)CC2c1ccccc1` (stereo not drawn) [Example 131A, Methyl 2-(4-(4-chloro-1H-imidazol-1-yl)-3-methoxyphenylamino)-4-(ethylamino)-8-phenyl-7,8-dihydropyrido[4,3-d]pyrimidine-6(5H)-carboxylate] in this work.
An IC50 [2] of 1.5 to 9.9 nM was found for `COc1cc(Nc2nc(NCCCO)c3c(n2)C(c2ccc(F)cc2)CC3)ccc1-n1cnc(Cl)c1` (racemic) [Example 43, 3-(2-(4-(4-chloro-1H-imidazol-1-yl)-3-methoxyphenylamino)-7-(4-fluorophenyl)-6,7-dihydro-5H-cyclopenta[d]pyrimidin-4-ylamino)propan-1-ol] in this work.
An IC50 [1] of 1.5 to 9.9 nM was found for `CNc1nc(Nc2ccc(-n3cnc(Cl)c3)c(OC)c2)nc2c1CCC2c1ccc(F)cc1F` (single isomer, unassigned) [Example 109B, N^2-(4-(4-Chloro-1H-imidazol-1-yl)-3-methoxyphenyl)-7-(2,4-difluorophenyl)-N^4-methyl-6,7-dihydro-5H-cyclopenta[d]pyrimidine-2,4-diamine] in this work.
An IC50 [2] of 10 to 100 nM was found for `COc1cc(Nc2nc3c(c(N4CCN(C)CC4)n2)CCC3c2ccc(F)cc2)ccc1-n1cnc(Cl)c1` (single isomer, unassigned) [Example 30A, N-(4-(4-chloro-1H-imidazol-1-yl)-3-methoxyphenyl)-7-(4-fluorophenyl)-4-(4-methylpiperazin-1-yl)-6,7-dihydro-5H-cyclopenta[d]pyrimidin-2-amine] in this work.
An IC50 [1] of 10 to 100 nM was found for `COc1cc(Nc2nc(N[C@H](C)C3CC3)c3c(n2)C(c2ccc(F)cc2)CC3)ccc1-n1cnc(Cl)c1` (single isomer, unassigned) [Example 49B] in this work.
An IC50 [2] of 10 to 100 nM was found for `CNc1nc(Nc2ccc(-n3cnc(C)n3)c(OC)c2)nc2c1CC[C@@H]2c1ccccc1Cl` [Example 268B, (R)—N2-(3-methoxy-4-(3-methyl-1H-1,2,4-triazol-1-yl)phenyl)-7-(2-chlorophenyl)-N4-methyl-6,7-dihydro-5H-cyclopenta[d]pyrimidine-2,4-diamine] in this work.
An IC50 [2] of 10 to 100 nM was found for `COc1cc(Nc2nc3c(c(N4CC5(C4)OCCO5)n2)CCC3c2ccccc2)ccc1-n1cnc(Cl)c1` (stereo not drawn) [Example 184, N-(4-(4-chloro-1H-imidazol-1-yl)-3-methoxyphenyl)-7-phenyl-4-(5,8-dioxa-2-azaspiro[3.4]octan-2-yl)-6,7-dihydro-5H-cyclopenta[d]pyrimidin-2-amine] in this work.
An IC50 [3] of 45 nM was found for `COc1cc(Nc2nc(N[C@H](C)C3CC3)c3c(n2)C(c2ccc(C(F)(F)F)cc2)COC3)ccc1-n1cnc(Cl)c1` (stereo partly drawn) [Example 117, N2-(4-(4-chloro-1H-imidazol-1-yl)-3-methoxyphenyl)-N4-((R)-1-cyclopropylethyl)-8-(4-(trifluoromethyl)phenyl)-7,8-dihydro-5H-pyrano[4,3-d]pyrimidine-2,4-diamine, TFA] in this work.
An IC50 [1] of 1.5 to 9.9 nM was found for `CCNc1nc(Nc2ccc(-n3ncnc3C)c(F)c2)nc2c1CN(S(C)(=O)=O)CC2c1ccccc1` (stereo not drawn) [Example 140A, N4-ethyl-N2-(3-fluoro-4-(5-methyl-1H-1,2,4-triazol-1-yl)phenyl)-6-(methylsulfonyl)-8-phenyl-5,6,7,8-tetrahydropyrido[4,3-d]pyrimidine-2,4-diamine] in this work.
An IC50 (read-out: Activity Rating (Aβ42 cellular IC50), numeric value) of 64 nM was found for `COc1cc(Nc2nc3c(c(N4CC(C)(OC)C4)n2)CCC3c2ccc(F)cc2)ccc1-n1cnc(C)n1` (stereo not drawn) [Example 192, 7-(4-fluorophenyl)-4-(3-methoxy-3-methylazetidin-1-yl)-N-(3-methoxy-4-(3-methyl-1H-1,2,4-triazol-1-yl)phenyl)-6,7-dihydro-5H-cyclopenta[d]pyrimidin-2-amine] in this work.
An IC50 [2] of 10 to 100 nM was found for `COc1cc(Nc2nc3c(c(N4CCC(F)C4)n2)CCOC3c2ccc(F)cc2)ccc1-n1cnc(Cl)c1` (stereo in doubt) [Example 90A, N-(4-(4-chloro-1H-imidazol-1-yl)-3-methoxyphenyl)-8-(4-fluorophenyl)-4-((R)-3-fluoropyrrolidin-1-yl)-6,8-dihydro-5H-pyrano[3,4-d]pyrimidin-2-amine] in this work.
An IC50 [2] of 10 to 100 nM was found for `CCNc1nc(Nc2ccc(-n3ncnc3C)c(F)c2)nc2c1CN(CC(F)F)CC2c1ccccc1` (stereo not drawn) [Example 194, 6-(2,2-difluoroethyl)-N4-ethyl-N2-(3-fluoro-4-(5-methyl-1H-1,2,4-triazol-1-yl)phenyl)-8-phenyl-5,6,7,8-tetrahydropyrido[4,3-d]pyrimidine-2,4-diamine] in this work.
An IC50 [1] of 1.5 to 9.9 nM was found for `CCNc1nc(Nc2ccc(-n3cnc(Cl)c3)c(OC)c2)nc2c1COC2c1ccc(F)cc1` (single isomer, unassigned) [Example 75A, N^2-(4-(4-chloro-1H-imidazol-1-yl)-3-methoxyphenyl)-N^4-ethyl-7-(4-fluorophenyl)-5,7-dihydrofuro[3,4-d]pyrimidine-2,4-diamine] in this work.
An IC50 [2] of 10 to 100 nM was found for `CCNc1nc(Nc2ccc(-n3ncnc3C)c(F)c2)nc2c1COCC2c1ccc(F)cc1` (racemic) [Example 59, N4-ethyl-N2-(3-fluoro-4-(5-methyl-1H-1,2,4-triazol-1-yl)phenyl)-8-(4-fluorophenyl)-7,8-dihydro-5H-pyrano[4,3-d]pyrimidine-2,4-diamine] in this work.
An IC50 [2] of 1.5 to 9.9 nM was found for `CNc1nc(Nc2ccc(-n3cnc(Cl)c3)c(OC)c2)nc2c1COCC2c1ccc(Br)cc1` (stereo not drawn) [Example 72, 8-(4-bromophenyl)-N^2-(4-(4-chloro-1H-imidazol-1-yl)-3-methoxyphenyl)-N^4-methyl-7,8-dihydro-5H-pyrano[4,3-d]pyrimidine-2,4-diamine] in this work.
An IC50 [2] of 100 to 1000 nM was found for `CNc1nc(Nc2ccc(C3(C#N)CC3)cc2)nc2c1CCC2c1ccccc1` (stereo not drawn) [Example 247, 1-(4-(4-(methylamino)-7-phenyl-6,7-dihydro-5H-cyclopenta[d]pyrimidin-2-ylamino)phenyl)cyclopropanecarbonitrile] in this work.
An IC50 [2] of 10 to 100 nM was found for `CNc1nc(Nc2ccc(-n3cnc(C)c3)c(OC)n2)nc2c1CCC2c1ccc(F)cc1` (stereo not drawn) [Example 267, 7-(4-fluorophenyl)-N2-(6-methoxy-5-(4-methyl-1H-imidazol-1-yl)pyridin-2-yl)-N4-methyl-6,7-dihydro-5H-cyclopenta[d]pyrimidine-2,4-diamine] in this work.
An IC50 [1] of 10 to 100 nM was found for `CCNc1nc(Nc2ccc(-n3cnc(Cl)c3)c(OC)c2)nc2c1CN(C(=O)COC)CC2c1ccccc1` (stereo not drawn) [Example 133, 1-(2-(4-(4-chloro-1H-imidazol-1-yl)-3-methoxyphenylamino)-4-(ethylamino)-8-phenyl-7,8-dihydropyrido[4,3-d]pyrimidin-6(5H)-yl)-2-methoxyethanone] in this work.
An IC50 [3] of 15 nM was found for `CNc1nc(Nc2ccc(-n3cnc(C)n3)c(OC)c2)nc2c1CN(C)CC2c1ccc(F)cc1` (stereo not drawn) [Example 198B, 8-(4-fluorophenyl)-N2-(3-methoxy-4-(3-methyl-1H-1,2,4-triazol-1-yl)phenyl)-N4,6-dimethyl-5,6,7,8-tetrahydropyrido[4,3-d]pyrimidine-2,4-diamine] in this work.
An IC50 [1] of 10 to 100 nM was found for `CCC1CCCN1c1nc(Nc2ccc(-n3cnc(Cl)c3)c(OC)c2)nc2c1CCC2c1ccc(F)cc1` (single isomer, unassigned) [Example 24, N-(4-(4-chloro-1H-imidazol-1-yl)-3-methoxyphenyl)-4-(2-ethylpyrrolidin-1-yl)-7-(4-fluorophenyl)-6,7-dihydro-5H-cyclopenta[d]pyrimidin-2-amine] in this work.
An IC50 [2] of 10 to 100 nM was found for `COc1cc(Nc2nc3c(c(N4CC(F)(F)C4)n2)CN(S(C)(=O)=O)CC3c2ccc(F)cc2)ccc1-n1cnc(Cl)c1` (stereo not drawn) [Example 160, N-(4-(4-chloro-1H-imidazol-1-yl)-3-methoxyphenyl)-4-(3,3-difluoroazetidin-1-yl)-8-(4-fluorophenyl)-6-(methylsulfonyl)-5,6,7,8-tetrahydropyrido[4,3-d]pyrimidin-2-amine] in this work.
An IC50 [3] of 59 nM was found for `COc1cc(Nc2nc3c(c(N4CCCC4C)n2)CCC3c2ccc(F)cc2)ccc1-n1cnc(Cl)c1` (single isomer, unassigned) [Example 19B, N-(4-(4-chloro-1H-imidazol-1-yl)-3-methoxyphenyl)-7-(4-fluorophenyl)-4-(2-methylpyrrolidin-1-yl)-6,7-dihydro-5H-cyclopenta[d]pyrimidin-2-amine] in this work.
An IC50 [2] of 10 to 100 nM was found for `CNC1CCN(c2nc(Nc3ccc(-n4cnc(Cl)c4)c(OC)c3)nc3c2CCC3c2ccc(F)cc2)C1` (stereo not drawn) [Example 32, N-(4-(4-chloro-1H-imidazol-1-yl)-3-methoxyphenyl)-7-(4-fluorophenyl)-4-(3-(methylamino)pyrrolidin-1-yl)-6,7-dihydro-5H-cyclopenta[d]pyrimidin-2-amine] in this work.
An IC50 [2] of 10 to 100 nM was found for `COc1cc(Nc2nc3c(c(N4CC(F)(F)C4)n2)COC3c2ccc(F)cc2)ccc1-n1cnc(Cl)c1` (racemic) [Example 80, N-(4-(4-chloro-1H-imidazol-1-yl)-3-methoxyphenyl)-4-(3,3-difluoroazetidin-1-yl)-7-(4-fluorophenyl)-5,7-dihydrofuro[3,4-d]pyrimidin-2-amine] in this work.
An IC50 [1] of 1.5 to 9.9 nM was found for `COc1cc(Nc2nc3c(c(N4CCCC4C)n2)CCC3c2ccc(F)cc2)ccc1-n1cnc(Cl)c1` (single isomer, unassigned) [Example 20, N-(4-(4-chloro-1H-imidazol-1-yl)-3-methoxyphenyl)-7-(4-fluorophenyl)-4-(2-methylpyrrolidin-1-yl)-6,7-dihydro-5H-cyclopenta[d]pyrimidin-2-amine] in this work.
